# Legend:
# Sarcoma-180 [1] = assay: antitumor activity against subcutaneous Sarcoma-180 in mice, oral administration (Pharmacological Test I); format: in vivo, male mice of ICR/JCL strain; conditions: for ED50: Mus musculus, Sarcoma-180, 240 h, once a day for 7 consecutive days, tumor weight on 10th day, read-out: ED50 (effective dose for achieving 50% cancer inhibition)
# Procedure: (§1) Tissues of Sarcoma-180 were subcutaneously transplanted into the back of male mice of ICR/JCL strain (weighing 27 to 30 g) in an amount of 5×10^6 cells each. The test compound was administered in the form of a weakly acidic aqueous solution. The solution was orally given to each mouse (7 mice in each group) in a dose of 1.0 ml/100 g body weight once a day for 7 consecutive days starting 24 hours after the transplantation, and a weakly acidic aqueous solution containing no test compound was orally administered to the control group in an amount of 1.0 ml/100 g body weight once a day for 7 consecutive days starting 24 hours after the transplantation.
# (§2) The tumor was removed from the body on the 10the day after the transplantation and weighed to calculate the average weight of the tumors in the group to which the test compound-containing solution was given and the corresponding weight in the control group. The effective dose (ED50) for achieving 50% cancer inhibition was determined from the dose-response curve. The dose of 50% inhibition of body weight gain (IB50) was determined from the dose-body weight change curve. The therapeutic index (T.I. =IB50/ ED50) was determined with the results shown below in Table 6.
# [2] = inhibition of body weight gain in Sarcoma-180 bearing mice, oral administration (Pharmacological Test I); format: in vivo, male mice of ICR/JCL strain; conditions: once a day for 7 consecutive days
# Procedure: as §1, §2
# Sarcoma-180 [3] = assay: antitumor activity against subcutaneous Sarcoma-180 in mice, tail vein administration (Pharmacological Test II); format: in vivo, ICR mice; conditions: Mus musculus, Sarcoma-180, iv, 240 h, once a day for 7 consecutive days, tumor weight on 10th day, read-out: ED50 (50% tumor inhibition dose, T/C = 0.5)
# Procedure: Sarcoma-180 subcultured in ascites of ICR mice was diluted with a physiological saline and subcutaneously transplanted into the backs of ICR mice in an amount of 2×10^7 cells each. Twenty-four hours after the transplantation, a test compound dissolved in sterilized physiological saline was administered to the tail vein of each of the mice once a day for 7 consecutive days. The solid tumor was isolated from under the dorsal skin of mice on the 10th day after the transplantation to measure the weight of the tumor. There was determined the ratio (T/C) of the weight of tumor (T) of the test compound group to the weight of tumor (C) of the control group. The 50% tumor inhibition dose (ED50 value) in which T/C is 0.5 was determined from the dose response curve of dosage and the ratio (T/C).
# [4] = compared with O^3' -p-chlorobenzyl-2'-deoxy-5-fluorouridine
smiles,measurement,setting,value
NCC(=O)OC[C@H]1O[C@@H](n2cc(F)c(=O)[nH]c2=O)C[C@@H]1OCc1ccc(Cl)cc1 [Compound 12],T.I. (therapeutic index = IB50/ED50),Sarcoma-180 [1],4.80
same,ED50,Sarcoma-180 [1],0.75 mg/kg
same,anti-cancer effect in words,Sarcoma-180 [1]; [4],superior in anti-cancer effect
same,efficacy in words,Sarcoma-180 [1]; [4],higher in efficacy
same,therapeutic index in words,Sarcoma-180 [1]; [4],greater in therapeutic index
same,IB50 (dose of 50% inhibition of body weight gain),[2],3.60 mg/kg/day
CC(C)[C@H](N)C(=O)OC[C@H]1O[C@@H](n2cc(F)c(=O)[nH]c2=O)C[C@@H]1OCc1ccc(Cl)cc1 [Compound 13],ED50,Sarcoma-180 [3],1.5 mg/kg
"O=c1[nH]c(=O)n([C@H]2C[C@H](OCc3ccc(Cl)cc3)[C@@H](CO)O2)cc1F [O^3' -p-chlorobenzyl-2'-deoxy-5-fluorouridine, reference compound]",T.I. (therapeutic index = IB50/ED50),Sarcoma-180 [1],1.64
same,ED50,Sarcoma-180 [1],0.94 mg/kg
same,IB50 (dose of 50% inhibition of body weight gain),[2],1.54 mg/kg/day
CC(C)C[C@H](N)C(=O)OC[C@H]1O[C@@H](n2cc(F)c(=O)[nH]c2=O)C[C@@H]1OCc1ccc(Cl)cc1 [Compound 14],ED50,Sarcoma-180 [3],1.5 mg/kg
NCC(=O)OC[C@H]1O[C@@H](n2cc(F)c(=O)[nH]c2=O)C[C@@H]1OCc1ccc(Cl)cc1Cl [Compound 19],ED50,Sarcoma-180 [3],0.8 mg/kg
C[C@H](N)C(=O)OC[C@H]1O[C@@H](n2cc(F)c(=O)[nH]c2=O)C[C@@H]1OCc1ccc(Cl)cc1 [Compound 22],ED50,Sarcoma-180 [3],1 mg/kg
NCC(=O)OC[C@H]1O[C@@H](n2cc(F)c(=O)[nH]c2=O)C[C@@H]1OCc1ccc(Cl)cc1 [Compound 28],ED50,Sarcoma-180 [3],1 mg/kg
"Cl.NCC(=O)OC[C@H]1O[C@@H](n2cc(F)c(=O)[nH]c2=O)C[C@@H]1OCc1ccc(Cl)cc1 [Example 8 (E), 3'-O-(4-chlorobenzyl)-2'-deoxy-5-fluoro-5'-O-glycyluridine hydrochloride]",ED50,Sarcoma-180 [3],1 mg/kg
